# Where no end group is shown, it is not given here.
# Columns and labels:
# [1] = system: OVA-EL4 cancer cells; assay: Time-course flow cytometry of OVA-EL4 cancer cells with OT-I CD8+ T cells; format: cell-based; design: unit not given here; settings: H5 10 μM, Sytox Blue 1 μM
# Excerpt: Legends: viable (gray), H5-stained (green), apoptotic (red). […] Black arrows highlight T cells, yellow arrows highlight H5-stained intracellular GzmB puncta. […] Scale bar: 10 μm. f Flow cytometric analysis of OVA-EL4 cancer cells from experiments in e. Data as means ± SEM (n = 3). P-values from two-tailed t-tests. Source data (c, f) provided as a Source Data file.
# We utilized CD8+ T cells expressing the OT-I transgenic receptor, which specifically targets cells presenting the OVA-derived […] antigen in the context of H-2kb and co-cultured them with […]-pulsed EL4 cancer cells (Fig. S11). T cells were counterstained with Cell Tracker Orange for ease of identification and incubated with probe H5 and the cell death marker Sytox Blue before time-lapse microscopy.
# [2] = system: SCC cancer cells; assay: Ex vivo flow cytometry of wild-type SCC and SCC FAK (−/−) tumors; format: cell-based, mouse; settings: for Fluorescence intensity of H5 inside SCC cancer cells (525 nm) / Freq cancer cells (GzmB-positive SCC cancer cells by H5 staining): H5 5 μM, 30 min; for Mean fluorescence intensity after incubation with probe H5: SCC (-/-) tumor digests
# Experimental: P-values from two-tailed t-tests using Welch correction. Source data (c–f) provided as a Source Data file.
# All animal work was carried out in compliance with UK Home Office guidelines. SCC tumors were established and labeled for flow cytometry as previously described. Briefly, 1 × 10^6 SCC cancer cells (obtained from Dr Alan Serrels at The University of Edinburgh) were injected subcutaneously into FVB/N mice (n = 4 for both WT and FAK (−/−) groups, Sex: female, Age: 10–14 weeks, obtained from Harlan UK), which were sacrificed 14 days post-implantation and tumors disaggregated to generate a single-cell suspension. […] Data analysis was performed using FlowJo V10 software. […]
# and SCC7.1 FAK-/- tumors. All cells were gated on singlets and live cells (Zombie NIR viability dye, 1:1000 dilution). Wild-type SCC and SCC FAK-/- were gated as CD45− CD140a− (AF700 & BV650, respectively). All non-cancerous and non-fibrotic cells were gated on CD45+ (AF700). Monocytes were gated on CD11b+ (PerCP-Cy5.5) whilst the remaining cells were classified as CD8+ T cells (PE), CD4+ T cells (eFluor450) or immune cells (CD4−CD8− or CD4+CD8+).
# (1 picture or pasted object on this page, not shown here)
substance,measurement,setting,value
"IEPDAL [H5, FRET hexapeptide IEPDAL with BODIPY-FL fluorophore at the N-terminal end and Dabcyl quencher]",H5+DAPI+ OVA-EL4 cancer cells,"[1]; 0 h, Data 1",0.47
same,H5+DAPI- OVA-EL4 cancer cells,"[1]; 0 h, Data 1",1.17
same,H5-DAPI+ OVA-EL4 cancer cells,"[1]; 0 h, Data 1",0.04
same,H5+DAPI+ OVA-EL4 cancer cells,"[1]; 0 h, Data 2",0.46
same,H5+DAPI- OVA-EL4 cancer cells,"[1]; 0 h, Data 2",0.35
same,H5-DAPI+ OVA-EL4 cancer cells,"[1]; 0 h, Data 2",0.011
same,H5+DAPI+ OVA-EL4 cancer cells,"[1]; 0 h, Data 3",0.43
same,H5+DAPI- OVA-EL4 cancer cells,"[1]; 0 h, Data 3",0.23
same,H5-DAPI+ OVA-EL4 cancer cells,"[1]; 0 h, Data 3",0.00
same,H5+DAPI+ OVA-EL4 cancer cells,"[1]; 1 h, Data 1",0.60
same,H5+DAPI- OVA-EL4 cancer cells,"[1]; 1 h, Data 1",1.57
same,H5-DAPI+ OVA-EL4 cancer cells,"[1]; 1 h, Data 1",0.03
same,H5+DAPI+ OVA-EL4 cancer cells,"[1]; 1 h, Data 2",0.80
same,H5+DAPI- OVA-EL4 cancer cells,"[1]; 1 h, Data 2",1.83
same,H5-DAPI+ OVA-EL4 cancer cells,"[1]; 1 h, Data 2",0.053
same,H5+DAPI+ OVA-EL4 cancer cells,"[1]; 1 h, Data 3",0.49
same,H5+DAPI- OVA-EL4 cancer cells,"[1]; 1 h, Data 3",1.53
same,H5-DAPI+ OVA-EL4 cancer cells,"[1]; 1 h, Data 3",0.026
same,H5+DAPI+ OVA-EL4 cancer cells,"[1]; 2 h, Data 1",0.82
same,H5+DAPI- OVA-EL4 cancer cells,"[1]; 2 h, Data 1",3.01
same,H5-DAPI+ OVA-EL4 cancer cells,"[1]; 2 h, Data 1",0.047
same,H5+DAPI+ OVA-EL4 cancer cells,"[1]; 2 h, Data 2",0.66
same,H5+DAPI- OVA-EL4 cancer cells,"[1]; 2 h, Data 2",2.90
same,H5-DAPI+ OVA-EL4 cancer cells,"[1]; 2 h, Data 2",0.06
same,H5+DAPI+ OVA-EL4 cancer cells,"[1]; 2 h, Data 3",0.58
same,H5+DAPI- OVA-EL4 cancer cells,"[1]; 2 h, Data 3",2.81
same,H5-DAPI+ OVA-EL4 cancer cells,"[1]; 2 h, Data 3",0.038
same,H5+DAPI+ OVA-EL4 cancer cells,"[1]; 3 h, Data 1",2.18
same,H5+DAPI- OVA-EL4 cancer cells,"[1]; 3 h, Data 1",2.12
same,H5-DAPI+ OVA-EL4 cancer cells,"[1]; 3 h, Data 1",0.05
same,H5+DAPI+ OVA-EL4 cancer cells,"[1]; 3 h, Data 2",1.34
same,H5+DAPI- OVA-EL4 cancer cells,"[1]; 3 h, Data 2",2.16
same,H5-DAPI+ OVA-EL4 cancer cells,"[1]; 3 h, Data 2",0.07
same,H5+DAPI+ OVA-EL4 cancer cells,"[1]; 3 h, Data 3",1.51
same,H5+DAPI- OVA-EL4 cancer cells,"[1]; 3 h, Data 3",1.83
same,H5-DAPI+ OVA-EL4 cancer cells,"[1]; 3 h, Data 3",0.06
same,H5+DAPI+ OVA-EL4 cancer cells,"[1]; 4 h, Data 1",3.60
same,H5+DAPI- OVA-EL4 cancer cells,"[1]; 4 h, Data 1",0.63
same,H5-DAPI+ OVA-EL4 cancer cells,"[1]; 4 h, Data 1",0.09
same,H5+DAPI+ OVA-EL4 cancer cells,"[1]; 4 h, Data 2",3.55
same,H5+DAPI- OVA-EL4 cancer cells,"[1]; 4 h, Data 2",0.46
same,H5-DAPI+ OVA-EL4 cancer cells,"[1]; 4 h, Data 2",0.05
same,H5+DAPI+ OVA-EL4 cancer cells,"[1]; 4 h, Data 3",2.80
same,H5+DAPI- OVA-EL4 cancer cells,"[1]; 4 h, Data 3",0.60
same,H5-DAPI+ OVA-EL4 cancer cells,"[1]; 4 h, Data 3",0.026
same,H5+DAPI+ OVA-EL4 cancer cells,"[1]; 5 h, Data 1",8.18
same,H5+DAPI- OVA-EL4 cancer cells,"[1]; 5 h, Data 1",0.17
same,H5-DAPI+ OVA-EL4 cancer cells,"[1]; 5 h, Data 1",0.053
same,H5+DAPI+ OVA-EL4 cancer cells,"[1]; 5 h, Data 2",8.22
same,H5+DAPI- OVA-EL4 cancer cells,"[1]; 5 h, Data 2",0.12
same,H5-DAPI+ OVA-EL4 cancer cells,"[1]; 5 h, Data 2",0.10
same,H5+DAPI+ OVA-EL4 cancer cells,"[1]; 5 h, Data 3",16.90
same,H5+DAPI- OVA-EL4 cancer cells,"[1]; 5 h, Data 3",0.10
same,H5-DAPI+ OVA-EL4 cancer cells,"[1]; 5 h, Data 3",0.14
same,H5+DAPI+ OVA-EL4 cancer cells,"[1]; 6 h, Data 1",11.60
same,H5+DAPI- OVA-EL4 cancer cells,"[1]; 6 h, Data 1",0.09
same,H5-DAPI+ OVA-EL4 cancer cells,"[1]; 6 h, Data 1",0.10
same,H5+DAPI+ OVA-EL4 cancer cells,"[1]; 6 h, Data 2",10.50
same,H5+DAPI- OVA-EL4 cancer cells,"[1]; 6 h, Data 2",0.11
same,H5-DAPI+ OVA-EL4 cancer cells,"[1]; 6 h, Data 2",0.10
same,H5+DAPI+ OVA-EL4 cancer cells,"[1]; 6 h, Data 3",18.10
same,H5+DAPI- OVA-EL4 cancer cells,"[1]; 6 h, Data 3",0.076
same,H5-DAPI+ OVA-EL4 cancer cells,"[1]; 6 h, Data 3",0.07
same,Fluorescence intensity of H5 inside SCC cancer cells (525 nm),"[2]; SCC FAK tumor, Data 1",17211
same,Freq cancer cells (GzmB-positive SCC cancer cells by H5 staining),"[2]; SCC FAK tumor, Data 1",19%
same,Fluorescence intensity of H5 inside SCC cancer cells (525 nm),"[2]; SCC FAK tumor, Data 2",15125
same,Freq cancer cells (GzmB-positive SCC cancer cells by H5 staining),"[2]; SCC FAK tumor, Data 2",45%
same,Fluorescence intensity of H5 inside SCC cancer cells (525 nm),"[2]; SCC FAK tumor, Data 3",14692
same,Freq cancer cells (GzmB-positive SCC cancer cells by H5 staining),"[2]; SCC FAK tumor, Data 3",38%
same,Fluorescence intensity of H5 inside SCC cancer cells (525 nm),"[2]; SCC FAK tumor, Data 4",14334
same,Freq cancer cells (GzmB-positive SCC cancer cells by H5 staining),"[2]; SCC FAK tumor, Data 4",41%
same,Fluorescence intensity of H5 inside SCC cancer cells (525 nm),"[2]; SCC tumor, Data 1",5564
same,Freq cancer cells (GzmB-positive SCC cancer cells by H5 staining),"[2]; SCC tumor, Data 1",6%
same,Fluorescence intensity of H5 inside SCC cancer cells (525 nm),"[2]; SCC tumor, Data 2",6027
same,Freq cancer cells (GzmB-positive SCC cancer cells by H5 staining),"[2]; SCC tumor, Data 2",4.5%
same,Fluorescence intensity of H5 inside SCC cancer cells (525 nm),"[2]; SCC tumor, Data 3",5635
same,Freq cancer cells (GzmB-positive SCC cancer cells by H5 staining),"[2]; SCC tumor, Data 3",2.78%
same,Fluorescence intensity of H5 inside SCC cancer cells (525 nm),"[2]; SCC tumor, Data 4",5745
same,Freq cancer cells (GzmB-positive SCC cancer cells by H5 staining),"[2]; SCC tumor, Data 4",3.77%
same,Mean fluorescence intensity after incubation with probe H5,"[2]; CD4 T cells, Data 1",3345
same,Mean fluorescence intensity after incubation with probe H5,"[2]; CD4 T cells, Data 2",2508
same,Mean fluorescence intensity after incubation with probe H5,"[2]; CD8 T cells, Data 1",3289
same,Mean fluorescence intensity after incubation with probe H5,"[2]; CD8 T cells, Data 2",2980
same,Mean fluorescence intensity after incubation with probe H5,"[2]; cancer cells, Data 1",11273
same,Mean fluorescence intensity after incubation with probe H5,"[2]; cancer cells, Data 2",13796
same,Mean fluorescence intensity after incubation with probe H5,"[2]; immune cells (CD8-CD4-CD11b-), Data 1",3435
same,Mean fluorescence intensity after incubation with probe H5,"[2]; immune cells (CD8-CD4-CD11b-), Data 2",2496
same,Mean fluorescence intensity after incubation with probe H5,"[2]; monocytes / macrophages, Data 1",2362
same,Mean fluorescence intensity after incubation with probe H5,"[2]; monocytes / macrophages, Data 2",2247
same,cancer cells labeled with probe H5,"[2]; SCC FAK (−/−) tumors, H5 30 min",over 40%
